Test results: article PMC11968394, “The effect of deuterated PLK1 inhibitor on its safety and efficacy in vivo” (Frontiers in Oncology, 2025)

How the values were obtained:
Panc04.03 = assay: Cell viability (CellTiter-Glo, 72 h), Panc04.03; assay type: cell-based, Human; conditions: Panc04.03, 72 hours; for IC50: Homo sapiens, Panc 04.03; for Bottom: dose-response curve bottom; for Top: dose-response curve top
Description: (§1) Human pancreatic cancer cell lines (PSN1, PANC-1, Panc 04.03, MIA PaCa-2, BxPC-3, and Capan-1) were cultured in their respective culture media. PSN1 cell lines were maintained in RPMI 1640 + 10%FBS. MIA PaCa-2 cells were cultured in DMEM+10%FBS+5% horse serum. Panc 04.03 cells were grown in RPMI 1640 + 15%FBS+10μg/mL Insulin. PANC-1 cells were maintained in DMEM+10%FBS. BxPC-3 cells were cultured in RPMI 1640 + 10%FBS. Capan-1 cells were grown in IMDM+20%FBS. All cells were incubated at 37°C in a humidified atmosphere containing 5% CO2.
(§2) For assays, cells in the logarithmic growth phase were harvested, seeded to different concentrations at 2,000-6,000 cells/well in 96-well plates. Following overnight incubation, test compounds were added at various concentrations and incubated for 72 hours. Cell viability was assessed by the ATP concentration using the CellTiter-Glo reagent (Promega, Madison, WI 53711 USA), and luminescence values were recorded by a Multilabel Reader (PerkinElmer, Waltham, MA, USA).

PANC-1 = assay: Cell viability (CellTiter-Glo, 72 h), PANC-1; assay type: cell-based, Human; conditions: PANC-1, 72 hours; for IC50: Homo sapiens; for Bottom: dose-response curve bottom; for Top: dose-response curve top
Description: as §1, §2

BxPC-3 = assay: Cell viability (CellTiter-Glo, 72 h), BxPC-3; assay type: cell-based, Human; conditions: BxPC-3, 72 hours; for Bottom: dose-response curve bottom; for Top: dose-response curve top; for IC50: Homo sapiens
Description: as §1, §2

Capan-1 = assay: Cell viability (CellTiter-Glo, 72 h), Capan-1; assay type: cell-based, Human; conditions: Capan-1, 72 hours; for Bottom: dose-response curve bottom; for Top: dose-response curve top; for IC50: Homo sapiens
Description: as §1, §2

CLK2 = CLK2 (Homo sapiens, UniProt P49760); assay: Kinase assay CLK2; assay type: biochemical
Description: (§3) Serial dilutions in DMSO were prepared. PLK1 was serially diluted 5-fold from 10 μM, yielding concentrations from 10000 nM to 0.00512 nM. Other targets were serially diluted 3-fold from 10 μM, yielding concentrations from 10000 nM to 0.5 nM. We have used two kinase assays: HTRF assay and ADG-Glo assay.
(§4) For HTRF Assay, 2× ATP/substrate solution and 2× kinase solution were prepared in kinase reaction buffer. Using an Echo 655, 50 nL of each diluted compound was transferred to a 384-well detection plate. The plate was centrifuged at 1000 rpm for 1 minute. 2.5 μL of 2× kinase solution was added to each well. The plate was incubated at 25°C for 10 minutes. 2.5 μL of 2× ATP/substrate solution was added to each well. The plate was centrifuged at 1000 rpm for 1 minute. The plate was incubated at 25°C for 40 minutes. 2× XL665 and antibody detection reagent were prepared in detection buffer. 5 μL of the prepared kinase detection reagent was added to each well. The plate was centrifuged at 1000 rpm for 1 minute. The plate was incubated at 25°C for 1 hour. Fluorescence signals at 620 nm (Cryptate) and 665 nm (XL665) were measured using a multifunction plate reader.
(§5) For ADP-Glo Assay, 2× ATP/substrate solution and 2× kinase solution were prepared in kinase reaction buffer. […] Luminescence signals were measured using a multifunction plate reader.

RON = RON (Homo sapiens, UniProt Q04912); assay: Kinase assay RON; assay type: biochemical
Description: as §3, §4, §5

DRAK1 = DRAK1 (Homo sapiens, UniProt Q9UEE5); assay: Kinase assay DRAK1; assay type: biochemical
Description: as §3, §4, §5

[1] = Pharmacokinetics in PSN1 tumor CDX model, M-NSG mice; assay type: in vivo; conditions: female, mouse, serum; PSN1 tumor-bearing M-NSG mice, oral, 60 mg/kg; read-out: T1/2 in blood (converted)
Description: For in vivo PK/PD studies, a PSN1 tumor model was established in female M-NSG (NOD.Cg-Prkdc^scidIl2rg^em1Smoc ) mice, which are severely immunodeficient mice lacking the interleukin 2 receptor gamma chain on a NOD.Cg-Prkdc^scid background, at Shanghai Model Organisms (Shanghai, China). Briefly, 5 × 10^6 PSN1 cells were inoculated subcutaneously into each M-NSG mouse. Once the tumors reached approximately 500 mm³, compounds were administered orally at various dosages. For PK studies, blood samples were collected at 0, 0.25, 0.5, 1, 2, 6, and 24 hours post-dose. The sera from blood were then obtained and stored at -70°C. For PD studies, tumors were harvested 2 hours after dosing and stored at -70°C.The serum and tumor samples were then transported to PRECEDO (Hefei, Anhui, China) for further PK/PD studies.
For PK studies, serum and tumor samples were processed with the internal standard solution. Serum samples were centrifuged and mixed directly, while tumor samples were homogenized first. Supernatants were prepared for LC-MS/MS analysis. Compound concentrations were determined using LC-MS/MS with tolbutamide as the internal standard, employing a reverse-phase column and ESI on a tandem quadrupole mass spectrometer.

[2] = set-up: method as in PMID 28726132; conditions: phase 1 clinical trial, given dosage, 5-day dosing time period; cited from earlier work

Chain of DRAK1 (Q9UEE5 whole entry, species assumed): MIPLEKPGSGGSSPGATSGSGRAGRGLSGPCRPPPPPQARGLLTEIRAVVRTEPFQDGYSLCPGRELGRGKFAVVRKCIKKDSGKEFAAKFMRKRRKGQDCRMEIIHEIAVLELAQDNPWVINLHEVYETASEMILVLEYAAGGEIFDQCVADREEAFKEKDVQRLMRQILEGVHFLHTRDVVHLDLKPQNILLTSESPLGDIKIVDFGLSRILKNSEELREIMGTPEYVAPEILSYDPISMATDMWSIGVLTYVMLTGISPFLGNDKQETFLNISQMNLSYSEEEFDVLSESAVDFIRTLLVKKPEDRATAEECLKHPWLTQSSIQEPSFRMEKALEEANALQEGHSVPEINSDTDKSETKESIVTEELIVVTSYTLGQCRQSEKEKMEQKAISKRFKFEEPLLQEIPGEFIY
Chain of CLK2 (P49760 whole entry, species assumed): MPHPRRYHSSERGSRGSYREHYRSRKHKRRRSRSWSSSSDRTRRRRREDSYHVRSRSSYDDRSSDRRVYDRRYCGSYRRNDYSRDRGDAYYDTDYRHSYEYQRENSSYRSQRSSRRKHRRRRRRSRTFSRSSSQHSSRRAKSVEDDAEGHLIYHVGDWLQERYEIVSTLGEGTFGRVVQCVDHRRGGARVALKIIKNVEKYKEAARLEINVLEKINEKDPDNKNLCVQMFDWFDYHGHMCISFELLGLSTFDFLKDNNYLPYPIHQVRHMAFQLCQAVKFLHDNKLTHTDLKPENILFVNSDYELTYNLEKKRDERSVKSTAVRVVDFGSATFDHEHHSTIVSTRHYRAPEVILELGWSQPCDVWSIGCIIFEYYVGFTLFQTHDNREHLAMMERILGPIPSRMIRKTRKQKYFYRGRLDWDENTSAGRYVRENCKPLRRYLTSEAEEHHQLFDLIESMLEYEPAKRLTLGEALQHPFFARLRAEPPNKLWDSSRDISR
Chain of RON (Q04912 25-1400, species assumed): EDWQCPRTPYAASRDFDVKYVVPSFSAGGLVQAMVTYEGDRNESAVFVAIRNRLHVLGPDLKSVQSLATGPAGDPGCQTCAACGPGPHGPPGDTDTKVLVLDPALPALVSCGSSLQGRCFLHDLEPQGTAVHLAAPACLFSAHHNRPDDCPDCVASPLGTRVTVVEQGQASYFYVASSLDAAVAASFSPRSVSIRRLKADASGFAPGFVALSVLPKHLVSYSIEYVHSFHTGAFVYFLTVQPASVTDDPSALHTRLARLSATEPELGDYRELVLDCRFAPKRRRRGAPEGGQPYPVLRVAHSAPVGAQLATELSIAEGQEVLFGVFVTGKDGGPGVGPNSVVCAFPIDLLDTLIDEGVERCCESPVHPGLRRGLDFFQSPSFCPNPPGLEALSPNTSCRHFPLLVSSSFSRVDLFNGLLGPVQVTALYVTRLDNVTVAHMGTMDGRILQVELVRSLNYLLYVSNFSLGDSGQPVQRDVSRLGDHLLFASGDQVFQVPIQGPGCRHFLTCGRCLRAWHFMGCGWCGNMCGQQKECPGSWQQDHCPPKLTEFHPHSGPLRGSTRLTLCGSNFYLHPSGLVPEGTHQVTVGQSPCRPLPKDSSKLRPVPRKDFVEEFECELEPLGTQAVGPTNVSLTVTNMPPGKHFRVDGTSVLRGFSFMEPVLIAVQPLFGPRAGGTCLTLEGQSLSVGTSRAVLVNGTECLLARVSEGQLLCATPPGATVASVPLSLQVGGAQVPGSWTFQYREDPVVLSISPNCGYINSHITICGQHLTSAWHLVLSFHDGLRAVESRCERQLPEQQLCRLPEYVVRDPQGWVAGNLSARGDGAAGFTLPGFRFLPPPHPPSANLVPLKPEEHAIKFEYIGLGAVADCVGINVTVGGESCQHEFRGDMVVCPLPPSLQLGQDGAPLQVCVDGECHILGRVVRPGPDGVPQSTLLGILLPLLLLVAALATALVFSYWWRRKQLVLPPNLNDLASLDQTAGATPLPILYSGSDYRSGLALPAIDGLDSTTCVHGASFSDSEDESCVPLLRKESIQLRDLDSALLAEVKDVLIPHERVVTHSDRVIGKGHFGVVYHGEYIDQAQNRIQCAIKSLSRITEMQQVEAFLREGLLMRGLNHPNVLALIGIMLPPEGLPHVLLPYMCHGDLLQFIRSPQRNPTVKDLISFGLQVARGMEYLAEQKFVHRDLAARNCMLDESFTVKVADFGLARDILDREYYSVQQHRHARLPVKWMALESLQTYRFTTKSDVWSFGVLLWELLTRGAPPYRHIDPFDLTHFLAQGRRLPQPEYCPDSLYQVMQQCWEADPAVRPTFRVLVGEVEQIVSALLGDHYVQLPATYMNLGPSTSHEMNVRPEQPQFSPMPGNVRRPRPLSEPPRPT

SMILES	IC50 (Panc04.03)	Bottom (Panc04.03)	Top (Panc04.03)	IC50 (PANC-1)	Bottom (PANC-1)	Top (PANC-1)	Bottom (BxPC-3)	Top (BxPC-3)	IC50 (BxPC-3)	Bottom (Capan-1)	Top (Capan-1)	IC50 (Capan-1)	IC50 (CLK2)	IC50 (RON)	IC50 (DRAK1)	half-life [1]	Tolerability [2]
CN1CCN(c2ccc(OC(F)(F)F)c(Nc3ncc4c(n3)-c3c(c(C(N)=O)nn3CCO)CC4)c2)CC1 [NMS-P937]	73 nM	-4	29.5	142 nM	-2.5	41.1	-2.8	53.5	64.9 nM	2.5	56.5	127 nM	37 nM	1090 nM	44.6 nM	2.4 h	well tolerated
[2H]C1([2H])N(C)C([2H])([2H])C([2H])([2H])N(c2ccc(OC(F)(F)F)c(Nc3ncc4c(n3)-c3c(c(C(N)=O)nn3CCO)CC4)c2)C1([2H])[2H] [PR00012]	83.8 nM	10.8	42.5	237 nM	9.8	53.1	13.6	66.3	65.1 nM	15.6	68.5	115 nM	24.8 nM	905 nM	48.7 nM	5.5 h	
